# Patent US11247970B2, “Selective inhibition of gluconeogenic activity” (Dana-Farber Cancer Institute, Inc., priority 2017, dated 2022)
# Key:
# [1] = system: primary hepatocytes; test: Glucose production by primary hepatocytes (glucagon or Ad-PGC-1α); assay type: cell-based, mouse; parameters: glucagon- and PGC-1α-mediated glucose production: dose or concentration left out as unconfirmed
# Protocol: (§1) For measurement of acetylation, gene expression and glucose production SR-18292 ([…]) was added to cells overnight and fresh compound was added the following day for additional 3 h before collecting the cells (for total of ˜18 h treatment). Where insulin and glucagon stimulation were performed, the medium was changed to starvation medium (DMEM, 0.2% BSA, 2 mM sodium pyruvate, and 1% penicillin/streptomycin) with fresh compound for the last 3 h and cells were stimulated with either 100 nM insulin or 200 nM glucagon for an extra 1.5 h. For glucose measurements following PGC-1α over expression cells were incubated for the last 3 h in glucose-free medium (phenol-red/glucose free DMEM, 0.2% BSA, 2 mM sodium pyruvate and 20 mM sodium lactate or 10 mM glycerol in case glycerol was used as substrate). For glucose measurements following glucagon stimulation cells were incubated for the last 4 h in the same glucose-free medium that also contained glucagon (200 nM). The glucose level in the medium was measured using a glucose assay kit from Eton Bioscience Inc. by adding […] of assay buffer to […] of medium followed by 15 min incubation at 37° C. Absorbance was measured at 490 nm.
# PGC-1α activates hepatic gluconeogenic gene expression, and an increase in its acetylation status reduces expression of both Pck1 and G6pc genes (Rodgers et al., 2005; Yoon et al., 2001). […] Thus, a high-throughput screen with these 252 compounds at different doses was performed. Briefly, Hepatocytes were treated with forskolin for 1.5 hours to induce the expression of both Pck1 and G6pc genes, which mimics the fasting and PGC-1α-mediated gluconeogenic response. The dose response curves were used to calculate an inhibitory activity of the compounds by determining the difference in Ct values between compound treatment and forskolin control at each dose, and provided an estimated potency of the compounds in suppressing Pck1 and G6pc (FIGS. 4, 34). […] To specifically test the inhibitory activity of the remaining small molecule positive hits on PGC-1α-mediated glucose production, adenoviruses to ectopically express PGC-1α in primary hepatocytes were used. Similar to forskolin, PGC-1α overexpression induces gluconeogenic gene expression and promotes glucose release. Primary hepatocytes were treated with the chosen positive hit compounds that could suppress gluconeogenic gene expression, and the concentration of glucose released to the culture medium was measured.
# [2] = system: primary hepatocytes; test: Cytotoxicity determination in primary hepatocytes (Toxilight, MTT, total protein); assay type: cell-based, mouse
# Protocol: For cell viability determination using MTT, primary hepatocytes were seeded on a 96-well plate at 20,000 cells/well. The following day cells were treated at different doses, as indicated, for 18 h following similar protocol described above for drug treatment of primary hepatocytes. […] of MTT reagent (5 mg/ml) was then added to each well (n=4/dose) and cells were incubated for 1 h at 37° C. Medium was discarded and dye was extracted by adding […] DMSO to each well. For cytotoxicity determination using ToxiLight Non-destructive Cytotoxicity Bioassay, hepatocytes were seeded on a 6-well plate and treated with either SR-18292 ([…]) or cisplatin ([…]) for 18 h. […] of medium was collected and used to measure cellular toxicity by adding 100 of adenylate kinase detection reagent (AKDR) and incubating 5 min at RT before measuring luminescence.
# [3] = system: Lep^ob/ob mice; test: Blood glucose in Lep ob/ob mice with hepatic PGC-1α knockdown; assay type: in vivo; details: shPGC-1α adenovirus
# Protocol: Virus was introduced to mice through the tail vein injection. Virus was thawed before injection and the desired amount of virus was diluted with saline to a final volume of 100 μL per mouse. Each mouse was injected with 6*10^7 pfu/g. SR-18292 treatment started on day 5 post infection.
# In addition, liver toxicity, as measured by serum levels of alanine transaminase (ALT), aspartate aminotransferase (AST), lactate dehydrogenase (LDH) and bilirubin, was not observed in mice treated with SR-18292 (Table 6). […] To assess the contribution of PGC-1α in mediating the in vivo effects of SR-18292, hepatic PGC-1α in Lep^ob/ob mice was depleted using shRNA and observed a significant reduction in basal blood glucose concentrations compared to control. […] To fully assess the effects of SR-18292 on whole body glucose homeostasis and insulin resistance, a glucose tolerance test (GTT) and insulin tolerance test (ITT) were performed following the same protocol used to determine fasting blood glucose. […] As expected, insulin levels after GTT were lower in the treated group (FIG. 51). […] To test if SR-18292 chronic treatment will cause similar anti-diabetic effects, mice were treated for a period of 14 days.
# [4] = system: ob/ob mice; test: Fasting glycemia and liver lipid in leptin deficient ob/ob mice; assay type: in vivo; details: diabetic leptin deficient ob/ob mice
# [5] = system: Pck1 and G6pc gene expression; test: Gluconeogenic gene and protein expression in primary hepatocytes (qPCR, western); assay type: cell-based, mouse
# Protocol: as §1
# siRNA oligos against mouse Ppargc1a were purchased from OriGene (SR420231). Hepatocytes were transfected with a 1:1:1:mixture of 3 unique 27mer siRNA duplexes ([…]) using Lipofectamin RNAiMax (Invitrogen) immediately upon seeding with plating medium. The following morning cells were washed with PBS and medium was changed to maintenance medium. In the afternoon, cells were transfected again and compound treatment started.
# Total RNA was extracted from cells or pulverized liver using TRIzol reagent (Ambion, Life Technologies), followed by cDNA preparation from 2 μg of total RNA with a High-Capacity cDNA Reverse Transcription Kit (Applied Biosystems). cDNA products were quantified by real-time PCR using Power SYBR Green PCR Master Mix (Applied Biosystems) on a CFX384 Real-Time PCR System (Bio-Rad). To calculate IC50 from C-80 dose response, curves were fit to the hill equation in a similar manner used to calculate estimated AC50 from the high-throughput qPCR screen. However, unlike the curves from the qPCR high-throughput screen, values of relative repression were used rather than of delta-Ct.
smiles,measurement,setting,value
"Cc1ccc(CN(CC(O)COc2cccc3[nH]ccc23)C(C)(C)C)cc1 (stereo not shown) [SR-18292, 1-((1H-indol-4-yl)oxy)-3-(tert-butyl(4-methylbenzyl)amino)propan-2-ol]",glucose release after short treatment,[1]; 3 hr treatment,no effect
same,glucose production from pyruvate and lactate or from glycerol as substrate,[1]; Ad-PGC-1α hepatocytes,decreases glucose production
same,glucagon- and PGC-1α-mediated glucose production,[1]; isolated hepatocytes,significantly reduced
same,hepatocyte toxicity by cell viability or total protein levels,[2]; 18 h treatment,did not cause hepatocyte toxicity
same,total protein levels,[2]; n=3,not affected
same,SR-18292-mediated reduction in blood glucose with reduced hepatic PGC-1α,[3],blunted SR-18292-mediated reductions in blood glucose concentrations
same,fasting glycemia,[4],improved fasting glycemia
same,lipid accumulation in liver,[4],without altering lipid accumulation in liver
same,gene expression after short treatment,[5]; 3 hr treatment,no effect
same,gluconeogenic gene and protein expression induced by ectopic PGC-1α,[5]; Ad-PGC-1α infected hepatocytes,significantly reduced
same,glucagon-stimulated Pck1 and G6pc gene expression,[5]; glucagon 200 nM,significantly reduced
same,PEPCK protein levels,[5]; hepatocytes infected with Ad-PGC-1α,reduced
same,suppression of Pck1 and G6pc after siRNA knock down of PGC-1α,[5]; siRNA against Ppargc1a,significantly impairs the ability of SR-18292 to suppress Pck1 and G6pc
